Source: patent publication US7629373B2, “Mitotic kinesin inhibitors” (Merck & Co. Inc., priority 2005, dated 2009)

Target: T1, human KSP motor domain (KSP(367H)) (Homo sapiens, UniProt P52732)
T1 construct: were used to amplify the motor domain and the neck linker region; made in house; host or cells: E. coli BL21 (DE3), pRSETa
T1 sequence (P52732 18-359 limits assumed): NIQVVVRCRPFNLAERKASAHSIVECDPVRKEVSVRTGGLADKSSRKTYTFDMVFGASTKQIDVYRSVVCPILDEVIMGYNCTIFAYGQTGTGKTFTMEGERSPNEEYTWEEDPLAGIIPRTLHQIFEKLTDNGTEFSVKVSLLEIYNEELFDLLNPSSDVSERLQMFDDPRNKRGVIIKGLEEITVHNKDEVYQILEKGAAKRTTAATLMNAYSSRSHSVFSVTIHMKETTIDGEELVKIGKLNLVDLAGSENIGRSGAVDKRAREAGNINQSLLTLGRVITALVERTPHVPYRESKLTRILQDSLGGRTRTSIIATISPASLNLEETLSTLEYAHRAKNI
Assay: Kinesin ATPase In Vitro Assay
Format: biochemical
Details: kinesin motor domain with microtubules, 1 mM ATP, 23° C.
Excerpt: I. Kinesin ATPase In Vitro Assay
Cloning and Expression of Human Poly-Histidine Tagged KSP Motor Domain (KSP(367H))
Plasmids for the expression of the human KSP motor domain construct were cloned by PCR using a pBluescript full length human KSP construct (Blangy et al., Cell, vol. 83, pp 1159-1169, 1995) as a template. The N-terminal primer 5′-[…] (SEQ. ID. NO.: 1) and the C-terminal primer 5′-[…] […] (SEQ. ID. NO.: 2) were used to amplify the motor domain and the neck linker region. The PCR products were digested with AseI and XhoI, ligated into the NdeI/XhoI digestion product of pRSETa (Invitrogen) and transformed into E. coli BL21 (DE3).
Cells were grown at 37° C. to an OD600 of 0.5. […]
The kinesin motor domain is incubated with microtubules, 1 mM ATP (1:1 MgCl2: Na-ATP), and compound at 23° C. in buffer containing 80 mM K-HEPES (pH 7.0), 1 mM EGTA, 1 mM DTT, 1 mM MgCl2, and 50 mM KCl. […] Free phosphate from the ATP hydrolysis reaction is measured via a quinaldine red/ammonium molybdate assay by adding a […] of quench C (e.g., to a mixture of 40 μl reaction volume+40 μl stop buffer is then added 120 μl quench C). […] Quench C is a 2:1 ratio of quench A:quench B The reaction is incubated for 5-10 minutes at 23° C., and the absorbance of the phospho-molybdate complex is measured at 540 nm.

IC50 [µM] | SMILES
≤ 50 | CC(=O)N1N=C(c2cc(F)ccc2F)C[C@@]1(CC[C@@H](N)CF)c1ccccc1 [Compound 2-7, [(1R)-3-[(5S)-1-Acetyl-3-(2,5-difluorophenyl)-5-phenyl-4,5′-dihydro-1H-pyrazol-5-yl]-1-(fluoromethyl)propyl]amine]
≤ 50 | CC(=O)N1N=C(c2cc(F)ccc2F)C[C@@]1(CC[C@H](N)CF)c1ccccc1 [Compound 2-8, [(1S)-3-[(5S)-1-Acetyl-3-(2,5-difluorophenyl)-5-phenyl-4,5-dihydro-1H-pyrazol-5-yl]-1-(fluoromethyl)propyl]amine]
